Biological target: T1, D-proline reductase (PR), PrdA subunit (Clostridioides difficile, UniProt Q17ZY9)
T1 construct: native PR complex purified from C. difficile VPI 10463; processed PrdA (~23 kDa) with N-terminal pyruvoyl; with PrdB
Experiment: fluorometric OPA assay of 5-aminovalerate production by purified PR
Type: biochemical

NNCCc1ccccc1 [compound 5, phenelzine] showed an IC50 of 460 ± 30 µM.

Reference: article PMC9908766, “Characterizing metabolic drivers of Clostridioides difficile infection with activity-based hydrazine probes” (Frontiers in Pharmacology, 2023)
